Test results published in US11633394B2, “Substituted alkynylene compounds as anticancer agents” (Aurigene Oncology Limited, priority 2018, dated 2023).

How the values were obtained:
Type in all cases: cell-based
OCI-Ly10 cells = test: Anti proliferative activity in OCI-Ly10 cells (CTG luminescence); settings: Homo sapiens, OCI-Ly10, 72 h
Method: Example 80: Determination of Anti Proliferative Activity in OCI-Ly10 Cells
OCI-Ly10 cells (UHN Canada) were plated at 7500 cells/well in 96 well flat bottom plates (Corning, Cat. No CLS3904) using complete Iscove's Modified Dulbecco's Medium (IMDM. After 6 hours, compounds from the present invention were added to the cells from 10 mM stocks made in DMSO (Sigma, Cat. No D2650). Each concentration of compound was tested in triplicates with DMSO concentration not exceeding a final percentage of 0.1 in the cells. After 72 hours of incubation in CO2 incubator, CTG (Promega, Cat. No G7572) was added to the wells and Luminescence readings were taken in the plate reader. Percent inhibition in proliferation was calculated using Microsoft Excel software. Positive control (100% survival)=Cells in complete media with 0.1% DMSO; Negative control/blank (0% survival)=Media alone containing 0.1% DMSO.

NCI-H1792 cells = test: Anti proliferative activity in NCI-H1792 cells by XTT assay; settings: Homo sapiens, NCI-H1792, 72 h, H1792 cell line
Method: Example 78: Determination of Anti Proliferative Activity in NCI-H1792 Cells by XTT Assay
NCI-H1792 cells (ATCC CRL-5895) were plated at 2000 cells/well in 96 well flat clear bottom plates (Corning, Cat. No 3596) using complete RPMI media. After 24 hours, compounds of present invention were added to cells from 20 mM stocks made in DMSO (Sigma Cat no. D2650). Each concentration of compound was tested in triplicate with DMSO concentration not exceeding a final percentage of 0.3 in the cells. After 72 hours of incubation in CO2 incubator, XTT (Invitrogen, Cat. no X6493) was added to the wells. XTT was dissolved in serum free media at 1 mg/ml and absorbance readings were taken in spectrophotometer at 465 nm. The data was analysed using graph pad prism software. Positive control (100% survival)=Cells in complete media with 0.3% DMSO; Negative control/blank (0% survival)=Media alone containing 0.3% DMSO.
(§1) The compounds of the present invention were screened in the above mentioned assay and the results are tabulated below.

NCI-H2122 cells = test: Anti proliferative activity in NCI-H2122 cells by XTT assay; settings: Homo sapiens, NCI-H2122, 192 h, H2122 cell line, at 30 μM, 8 days
Method: Example 79: Determination of Anti Proliferative Activity in NCI-H2122 Cells by XTT Assay
NCI-H2122 cells (ATCC CRL-5985) were plated at 1000 cells/well in 96 well flat clear bottom plates (Corning, Cat. No 3596) using complete RPMI-1640 media. After 24 hours, compounds of present invention were added to cells from 10 mM stocks made in DMSO (Sigma Cat no. D2650). Each concentration of compound was tested in triplicate with DMSO concentration not exceeding a final percentage of 0.3 in the cells. Complete RPMI-1640 media changed at Day 3 (72 hour) and Day 6 (144 hour) along with compounds of current invention. After 8 days (192 hour) of incubation assay terminated using 50 μl of XTT reagent (Invitrogen, Cat. no X6493). XTT reagent was made by dissolving 1 mg/mi XTT in serum free media with addition of 25 μM Phenazine methosulfate (sigma Cat. no P9625). Absorbance readings were taken in spectrophotometer at 465 nm. The data was analysed using graph pad prism software. Positive control (100% survival)=Cells in complete media with 0.3% DMSO; Negative control/blank (0% survival)=Media alone containing 0.3% DMSO.
as §1

In the case of C=CS(=O)(=O)N[C@H]1CC[C@@H](NC(=O)NC(C)C#Cc2ccc(Cl)c(Cl)c2)CC1 (mixture of isomers) [Example 50, N-((1s, 4s)-4-(3-(4-(3,4-dichlorophenyl)but-3-yn-2-yl)ureido)cyclohexyl) ethenesulfonamide], the inhibition at 1 µM (OCI-Ly10 cells; at 1 μM) is reported as 32%, the inhibition at 10 µM (OCI-Ly10 cells; at 10 μM) is reported as 48% and the IC50 (NCI-H1792 cells; 72 hours incubation) is reported as < 10 µM. It also gave a viability at 30 µM (NCI-H1792 cells; at 30 μM, 72 hours) of 17% and a viability at 30 µM (NCI-H2122 cells) of 1%.
